The values below come from patent US20240343747A1, “Heteroaryl compounds as inhibitors of TYK2, composition and application thereof” (Accro Bioscience (HK) Limited, priority 2021, published 2024).

Structures are written as SMILES.

For orientation: IC50 means the concentration needed to halve the response being measured. By fraction unbound is commonly meant the share of the substance not bound to proteins or other matrix.

Data set [1] concerns production of CXCL-10 stimulated by IFNα in PBMC. The data set can be described thus: ELISA: production of CXCL-10 stimulated by IFNα in PBMC. The format is cell-based. The conditions noted are these: CXCL-10 production stimulated by IFNα in PBMC; for IC50: ELISA. Here is the method: • 1. Soak plate: Add 300 μL 1×washing solution and let stand for 30 seconds. After discarding the washing solution, dry the microporous plate on absorbent paper. • 2. Add standard: Add 100 μL of 2-fold standard to standard well. Add 100 μL standard dilution (serum/plasma sample) or culture medium (cell culture supernatant sample) to blank well. • 3. Add sample: Serum/plasma: Add 50 μL 1×assay buffer and 50 μL sample to sample well. Cell culture supernatant: Add 100 μL cell culture supernatant to sample well. • 4. Add detection antibody: Add 50 μL diluted detection antibody (1:100 diluted) to each well. Make sure steps 4, 5 and 6 are added continuously without interruption. The sampling process was completed within 15 minutes. • 5. Incubation: Use sealing plate film to seal the plate. shake at 300 rpm and incubate for 2 hours at room temperature. • 6. Washing: Discard the liquid, add 300 μL of washing solution and wash the plate 6 times. pat dry on blotting paper after each wash. To obtain the desired experimental performance, the residual liquid must be completely removed. • 7. Enzyme addition: Add 100 μL diluted horseradish peroxidase labeled streptavidin to each well (1:100 diluted). • 8. Incubation: Seal the plate with a new sealing film. shake at 300 rpm and incubate at room temperature for 45 minutes. • 9. Washing. Repeat step […]. • 10. Add substrate for color development: Add 100 μL of color development substrate TMB to each well, keep away from light, and incubate at room temperature for 5-30 minutes. • 11. Add Stop Solution: Add 100 μL stop solution to each well. The color changed from blue to yellow. If the color appears green or the color changes unevenly, gently tap the frame of the plate to mix well. • 12. Assay readout: Within 30 minutes, perform dual wavelength detection using a microplate reader to measure the OD at the absorption maximum at 450 nm and reference wavelengths at 570 nm or 630 nm. The calibrated OD value is the measured value at 450 nm minus the measured value at 570 nm or 630 nm.
In general terms: In an ELISA, binding on a coated surface is turned into a signal by an enzyme label.

Another data set concerns JAK2/JAK2 pathway. Description: Selectivity: JAK2/JAK2 pathway, TPO-induced p-STAT3 in MEG-1 cells, western blot. The format is cell-based. The conditions noted are these: TPO 100 ng/mL. Here is the method: MEG-1 cells were digested by trypsin, re-suspended in 1640 medium and counted. The compounds to be measured were added to 6 well plates (1 million/per well) for 2 hours, and then TPO (final concentration: 100 ng/mL) was added to stimulate cells for 30 minutes. The cells were collected and lysed with protein lysate. The protein was quantitatively tested by BCA kit. Finally, p-STAT3/STAT3 and internal reference protein β-actin were detected by western blot.
(In general: In western blotting, separated proteins are transferred to a membrane and probed.)

For another data set, the system named is TYK2/JAK1 pathway. The data set can be described thus: Selectivity: TYK2/JAK1 pathway, IFN-α-induced p-STAT1 in human PBMC, western blot. The format is cell-based. Here is the method:
Commercial human PBMC (peripheral blood mononuclear cells) were centrifuged (400 g) for 10 min, counted and planted on 6-well plates (5 million/well). Then, the compounds to be tested were added for 2 hours and IFN-α (100 ng/mL) was added to stimulate cells for 15 minutes. Protein lysate was used to lysate cells, and BCA kit was used for protein quantification. Finally, p-STAT1/STAT1, P-TYK2/TYK2 and internal reference protein B-Actin were detected by Western blot.

The test system of the next data set is JAK1/JAK2 pathway. Description: Selectivity: JAK1/JAK2 pathway, IFN-γ-induced p-STAT1 in HT-29 cells, western blot. The format is cell-based. As to conditions: IFN-γ 100 ng/mL. Here is the method:
HT-29 cells were digested by trypsin and suspended in DMEM medium and counted. The tested compounds were added into 6 well plates (400 000/per well) for 2 hours, then IFN-γ (100 ng/mL) was added to stimulate cells for 30 minutes. The cells were collected and lysed with protein lysate. The protein was quantitatively tested by BCA kit. Finally, p-STAT1/STAT1 and internal reference protein β-actin were detected by western blot.

For a further data set, the system named is JAK1/JAK3 pathway. Description: Selectivity: JAK1/JAK3 pathway, IL-2-induced p-STAT5 in human PBMC, western blot. It counts as cell-based. The conditions noted are these: IL-2 100 ng/mL. How it is done: Commercial human PBMC (peripheral blood mononuclear cells) were centrifuged (400 g) for 10 min, counted and seeded into 6-well plates (5 million/well). The compounds to be tested were added for 2 hours and then IL-2 (100 ng/mL) was added to stimulate cells for 15 minutes. Finally, p-STAT5/STAT5 and internal reference protein β-actin were detected by Western blot.

Data set [2] can be described thus: Plasma protein binding test, rat. It counts as in vitro ADME. Here is the method:
(§1) • 1. Test compound and control compound were dissolved in dimethyl sulfoxide (DMSO) to achieve 10 mM stock solutions. DMSO working solutions were prepared at 400 μM. To prepare the loading matrix, compound working solutions (5 μL) were added in a 1:200 ratio to blank matrix (995 μL), and mixed thoroughly. • 2. To prepare the time zero (TO) samples to be used for recovery determination, 50 μL aliquots of loading matrix were transferred in triplicate to the sample collection plate. The samples were immediately matched with opposite blank buffer to obtain a final volume of 100 μL of 1:1 matrix/dialysis buffer (v/v) in each well. 500 μL of stop solution were added to these TO samples. They were then stored at 2-8° C. pending further processes along with other post-dialysis samples. • 3. To load the dialysis device, an aliquot of 150 μL of the loading matrix was transferred to the donor side of each dialysis well in triplicate, and 150 μL of the dialysis buffer was loaded to the receiver side of the well. The dialysis plate was placed in a humidified incubator at 37° C. with 5% CO2 on a shaking platform that rotated slowly (about 100 rpm) for 4 hours • 4. At the end of the dialysis, aliquots of 50 μL of samples were taken from both the buffer side and the matrix side of the dialysis device. […]
(§2) The % Unbound and % Bound were calculated using the following equations: […]

Data set [3] in a line: Plasma protein binding test, monkey. The format is in vitro ADME. Here is the method:
as §1, §2

Regarding `CCC(=O)c1cnc(NC(=O)C2CC2)cc1Nc1cccc(-c2cc(P(=O)(C3CC3)C3CC3)n(C)n2)c1OC` [Compound B37, N-(4-((3-(5-(dicyclopropylphosphoryl)-1-methyl-1H-pyrazol-3-yl)-2-methoxyphenyl)amino)-5-propionylpyridin-2-yl)cyclopropanecarboxamide], in data set [1], the “activity compared with BMS986165” value is recorded as “more active than BMS986165” and the IC50 worked out at 28.2 nM. Also, in the data set with JAK2/JAK2 pathway, the “effect on TPO-induced downstream STAT3 phosphorylation” value is “no effect”. Besides, in the data set on TYK2/JAK1 pathway (IFN-α), the “inhibition of TYK2/JAK1 pathway compared with BMS986165” value is on record as “better inhibitory activity than BMS986165”. The “inhibition of downstream STAT1 phosphorylation induced by IFN-α” value with TYK2/JAK1 pathway (IFN-α 100 ng/mL, western blot) is “effectively inhibit”. In the data set with JAK1/JAK2 pathway, the “effect on downstream STAT1 phosphorylation induced by IFN-γ” value is “no effect”. Further, the “effect on IL-2-induced downstream STAT5 phosphorylation” value with JAK1/JAK3 pathway is “no effect”.

In the case of `CCC(=O)c1cnc(NC(=O)C2CC2)cc1Nc1cccc(-c2cc(P(C)(C)=O)n(C)n2)c1OC` [Compound B2, N-(4-((3-(5-(dimethylphosphoryl)-1-methyl-1H-pyrazol-3-yl)-2-methoxyphenyl)amino)-5-propionylpyridin-2-yl)cyclopropanecarboxamide], the free fraction (fraction unbound) at 4 h, 2 μM is 0.055 in data set [2] and 0.042 in data set [3].

In the case of `[2H]C([2H])([2H])NC(=O)c1nnc(NC(=O)C2CC2)cc1Nc1cccc(-c2cc(P(=O)(C3CC3)C3CC3)n(C)n2)c1OC` [Compound B41, 6-(cyclopropanecarboxamido)-4-((3-(5-(dicyclopropylphosphoryl)-1-methyl-1H-pyrazol-3-yl)-2-methoxyphenyl)amino)-N-(methyl-d3)pyridazine-3-carboxamide], in data set [1], the IC50 was determined as 39.5 nM. Further, the “effect on TPO-induced downstream STAT3 phosphorylation” value in the data set with JAK2/JAK2 pathway was “no effect”. The fraction unbound at 4 h, 2 μM in data set [2] is 0.045; in data set [3] it was 0.076.
